How the values were obtained:
[1] = literature; cited from earlier work
[2] = tested on: Bacillus subtillis ATCC 6051; assay: Minimum inhibitory concentration in vitro, Bacillus subtillis; assay type: cell-based; set-up: unit not given here; conditions: free acids tested after removal of ester protective group
Description: (§1) General Procedure for Removing Protective Groups
(§2) The ester (100-200 mg) is dissolved in approx. 10 ml of 90% HOAc and the solution cooled to 0° before 1-1.5 g of zinc dust is added. The mixture is stirred at 0° for 3-5 hr. Removal of the zinc by filtration through celite into a flask containing 100 ml of ice-H2 O and washing the zinc with methylene chloride (50 ml) yielded a two-phase system. Separation of the organic layer, extraction of the aqueous layer with several methylene chloride-zinc washings, drying (MgSO4) and removal of the solvent under reduced pressure (no heat) afforded the free acid.
(§3) For purification (if required) the acid was dissolved in CH2 Cl2 and extracted with aqueous NaHCO3. The aqueous layer, after being extracted several times with CH2 Cl2, was cooled with ice and acidified with dilute HCl. Extraction with CH2 Cl2, drying (MgSO4) and removal of the solvent under reduced pressure (no heat) gave the pure acid.
(§4) A flask, charged with the ester, is submerged in an ice bath 5-10 min. before cold trifluoroacetic acid is added. The solution is stirred at 0° for 30-45 min. and then the solvent removed by distillation under reduced pressure (2-3 mm) with the reaction flask still submerged in the ice bath. The residue is freeze dried from benzene.
If purification is required, it is done in the same manner as described for removal of the trichloroethyl group (see above).
The benzhydryl group is removed in the same manner as described for the removal of the t-butyl group, above. After freeze drying the residue was purified in the following manner. The acid was dissolved in methylene chloride and extracted with aqueous NaHCO3. The aqueous layer, after being extracted several times with methylene chloride, was partitioned with methylene chloride, cooled with ice, and acidified with dilute HCl. Extraction with methylene chloride, drying (MgSO4), and removal of the solvent under reduced pressure (no heat) gave the pure acid.
In order to remove the protective benzyhydryl group from benzyhydryl-6β-(triophene-2-acetylthio)-6α-methoxypenicillanate, the following procedure was found necessary. The ester (70-80 mg) is dissolved in 10 ml of CH2 Cl2 and the solution cooled to -77° (CO2 -acetone) before the addition of 0.5 ml of trifluoroacetic acid. The solution was warmed to approximately -10° (NaCl-H2 O-ice) and stirred at that temperature for 5-6 hr. The solution was cooled to -77° and 75-100 ml of benzene added. After the contents of the flask solidified the acid was isolated by freeze drying and bioassayed without purification.
The protective groups of the penicillin and cephalosporin esters were removed as described above and the resulting free acids were tested in vitro for bioactivity.

[3] = tested on: certain Gram-negative organisms; conditions: background; cited from earlier work
[4] = tested on: certain resistant staphylococci; conditions: background; cited from earlier work
Sarcina lutea = assay: Minimum inhibitory concentration in vitro, Sarcina lutea; assay type: cell-based; conditions: free acids tested after removal of ester protective group
Description: as §1, §2, §3, §4
(§5) If purification is required, it is done in the same manner as described for removal of the trichloroethyl group (see above). […]

[5] = tested on: Staphylococcus aerus (Roche); assay: Minimum inhibitory concentration in vitro, Staphylococcus aerus (Roche); assay type: cell-based; set-up: unit not given here; conditions: free acids tested after removal of ester protective group
Description: as §1, §2, §3, §4, §5

Compound: CC1(C)S[C@@H]2[C@@H](OC(=O)COc3ccccc3)C(=O)N2[C@H]1C(=O)O [6α-phenoxyacetoxypenicillanic acid]
- biological activity [1]: exhibits no biological activity

Compound: COC1(SC(=O)OCC(Cl)(Cl)Cl)C(=O)N2C(C(=O)OC(c3ccccc3)c3ccccc3)C(C)(C)SC21 (stereo not drawn) [Benzhydryl 6β-(β,β,β-trichloroethoxycarbothio)6α-methoxypenicillanate]
- Minimum Inhibitory Concentration [2]: 100

Compound: CC1(C)S[C@@H]2[C@H](NC(=O)[C@H](N)c3ccccc3)C(=O)N2[C@H]1C(=O)O [ampicillin]
- broadened spectra of activity, Gram-negative organisms [3]: broadened the spectra to activity to include use against certain Gram-negative organisms

Compound: CC1(C)S[C@@H]2[C@H](NC(=O)C(C(=O)O)c3ccccc3)C(=O)N2[C@H]1C(=O)O (some centres unmarked) [carbenicillin]
- broadened spectra of activity, Gram-negative organisms [3]: broadened the spectra to activity to include use against certain Gram-negative organisms

Compound: COc1cccc(OC)c1C(=O)N[C@@H]1C(=O)N2[C@@H]1SC(C)(C)[C@@H]2C(=O)O [methicillin]
- activity against certain resistant staphylococci [4]: good activity

Compound: COC(=O)SC1(OC)C(=O)N2C(C(=O)OC(C)(C)C)=C(COC(C)=O)CSC21 (stereo not drawn) [t-Butyl 7β-(methoxycarbothio)-7α-methoxycephalosporanate]
- Minimum Inhibitory Concentration (Sarcina lutea): 25 mg/mL
- Minimum Inhibitory Concentration [2]: 50
- Minimum Inhibitory Concentration [5]: 50

Compound: COC1(SC(=O)Cc2ccccc2)C(=O)N2C(C(=O)OC(C)(C)C)=C(COC(C)=O)CSC21 (stereo not drawn) [tert-Butyl 7β-(phenylacetylthio)-7α-methoxycephalosporanate]
- Minimum Inhibitory Concentration (Sarcina lutea): 100 mg/mL
- Minimum Inhibitory Concentration [2]: < 6.25

Compound: COC1(SC(=O)Cc2cccs2)C(=O)N2C(C(=O)OC(C)(C)C)=C(COC(C)=O)CSC21 (stereo not drawn) [tert-Butyl 7β-(thiophene-2-acetylthio)-7α-methoxycephalosporanate]
- Minimum Inhibitory Concentration [2]: 50
